The results in this text go back to paper PMC7056826, “Crystal Structure of the Chloroplastic Glutamine Phosphoribosylpyrophosphate Amidotransferase GPRAT2 From Arabidopsis thaliana” (Frontiers in Plant Science, 2020).

The target in series [1] is T1, AtGPRAT2 (Arabidopsis thaliana, UniProt Q9STG9).
T1 construct: gene ASE2; residues 75-561 without predicted chloroplast transit peptide, C-terminal His tag (pET22b), E. coli BL21; propeptide autocatalytically removed, first visible residue Cys87 (87-546 visible); 4Fe-4S cluster; homo-tetramer in crystal
T1 sequence (Q9STG9 87-561): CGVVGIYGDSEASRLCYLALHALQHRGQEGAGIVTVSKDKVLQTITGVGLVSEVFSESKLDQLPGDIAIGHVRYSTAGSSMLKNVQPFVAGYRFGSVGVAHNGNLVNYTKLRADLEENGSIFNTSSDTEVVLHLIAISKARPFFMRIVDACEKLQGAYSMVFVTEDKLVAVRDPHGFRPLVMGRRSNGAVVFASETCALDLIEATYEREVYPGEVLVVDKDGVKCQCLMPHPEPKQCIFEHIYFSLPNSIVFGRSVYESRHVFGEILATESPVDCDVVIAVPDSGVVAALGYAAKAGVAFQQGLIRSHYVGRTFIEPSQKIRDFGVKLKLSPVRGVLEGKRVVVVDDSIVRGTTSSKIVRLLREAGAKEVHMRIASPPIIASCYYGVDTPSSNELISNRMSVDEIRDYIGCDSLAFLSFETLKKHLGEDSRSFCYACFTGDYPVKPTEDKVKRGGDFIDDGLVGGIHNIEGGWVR
Description: isothermal titration calorimetry, single site model. Format: binding. The text has this:
isothermal titration calorimetry, single site model on AtGPRAT2 | isothermal titration calorimetry (ITC) assay with wildtype, R264K and Y329A mutants of AtGPRAT2

Series [2] addresses T2, AtGPRAT2 (Arabidopsis thaliana, UniProt Q9STG9, Y329A).
T2 construct: gene ASE2; residues 75-561 without predicted chloroplast transit peptide, C-terminal His tag (pET22b), E. coli BL21; propeptide autocatalytically removed, first visible residue Cys87 (87-546 visible); 4Fe-4S cluster; homo-tetramer in crystal
T2 sequence (Q9STG9 87-561 Y329A): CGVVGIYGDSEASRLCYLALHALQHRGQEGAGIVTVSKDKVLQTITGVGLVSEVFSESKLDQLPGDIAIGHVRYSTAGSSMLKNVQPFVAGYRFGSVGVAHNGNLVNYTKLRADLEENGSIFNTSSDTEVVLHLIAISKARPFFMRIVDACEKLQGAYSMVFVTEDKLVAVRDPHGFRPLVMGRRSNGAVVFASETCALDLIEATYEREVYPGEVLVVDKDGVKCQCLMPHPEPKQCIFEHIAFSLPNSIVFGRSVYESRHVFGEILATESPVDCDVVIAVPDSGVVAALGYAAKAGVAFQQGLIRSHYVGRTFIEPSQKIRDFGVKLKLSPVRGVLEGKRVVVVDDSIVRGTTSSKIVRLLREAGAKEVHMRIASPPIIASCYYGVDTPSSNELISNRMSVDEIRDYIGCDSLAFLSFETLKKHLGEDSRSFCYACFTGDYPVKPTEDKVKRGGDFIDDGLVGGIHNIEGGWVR
The series is described as above. Format: binding.

Series [3] deals with T1, AtGPRAT2. Description: coupled glutamate dehydrogenase assay, NADH at […] nm, mixed inhibition model. Format: biochemical.
Series [4] deals with T3, AtGPRAT2 (Arabidopsis thaliana, UniProt Q9STG9, R264K).
T3 construct: gene ASE2; residues 75-561 without predicted chloroplast transit peptide, C-terminal His tag (pET22b), E. coli BL21; propeptide autocatalytically removed, first visible residue Cys87 (87-546 visible); 4Fe-4S cluster; homo-tetramer in crystal
T3 sequence (Q9STG9 87-561 R264K): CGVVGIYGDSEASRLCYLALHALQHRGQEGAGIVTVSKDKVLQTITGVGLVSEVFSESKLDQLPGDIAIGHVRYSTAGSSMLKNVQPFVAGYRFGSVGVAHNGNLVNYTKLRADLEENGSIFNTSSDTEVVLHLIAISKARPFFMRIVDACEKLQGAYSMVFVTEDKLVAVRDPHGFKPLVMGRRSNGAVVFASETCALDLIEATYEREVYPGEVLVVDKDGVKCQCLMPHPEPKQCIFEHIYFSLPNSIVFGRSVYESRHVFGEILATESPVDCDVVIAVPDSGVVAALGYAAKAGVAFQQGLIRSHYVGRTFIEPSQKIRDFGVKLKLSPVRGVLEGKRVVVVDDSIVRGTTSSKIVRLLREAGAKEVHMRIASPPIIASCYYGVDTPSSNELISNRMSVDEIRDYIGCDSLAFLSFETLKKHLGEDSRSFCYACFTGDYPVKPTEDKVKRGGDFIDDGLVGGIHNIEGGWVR
Description: isothermal titration calorimetry, single site model. Format: binding. Particulars: 20 mM HEPES pH 7.5, 200 mM NaCl, 25 °C; stated gain.

Substrate in the series “purified protein”: O=P(O)(O)OC[C@H]1O[C@H](OP(=O)(O)OP(=O)(O)O)[C@H](O)[C@@H]1O
The series can be described thus: purified protein. Format: biochemical, Arabidopsis thaliana. Particulars: 10 mM Gln, 37.5 mM NAD+, 110 mM potassium phosphate pH 8.0, no inhibitor.

Series [5] concerns the molecule itself. The series can be described thus: crystal structure; sitting-drop vapor diffusion at 291 K; 0.1 M sodium citrate tribasic pH 5.6, 1.5 M ammonium phosphate monobasic, 0.1 M citric acid pH 3.4; space group P3121, two molecules in the asymmetric unit; tetramer assigned with the PISA server.

For the molecule `CC(C)n1nc(CC(=O)O)nc1-c1ccc(Cl)cc1` [DAS734, [5-(4-chlorophenyl)-1-isopropyl-1H-[1,2,4]triazol-3-yl]-acetic acid], the Kd at AtGPRAT2 [1] was found to be 0.165 ± 0.0158 µM; at AtGPRAT2 [2], 1.75 ± 0.0384 µM. Moreover, on AtGPRAT2 [3], the inhibition constant Ki was found to be 5.29 µM. For the same molecule, the binding abolished result at AtGPRAT2 [4] was “the R264K mutation abolished the binding of DAS734 to AtGPRAT2”.

B1: Arabidopsis thaliana chloroplastic glutamine phosphoribosylpyrophosphate amidotransferase 2, AtGPRAT2^75-561 (enzyme, UniProt Q9STG9 75-561, looked up)
chain: CGVVGIYGDSEASRLCYLALHALQHRGQEGAGIVTVSKDKVLQTITGVGLVSEVFSESKLDQLPGDIAIGHVRYSTAGSSMLKNVQPFVAGYRFGSVGVAHNGNLVNYTKLRADLEENGSIFNTSSDTEVVLHLIAISKARPFFMRIVDACEKLQGAYSMVFVTEDKLVAVRDPHGFRPLVMGRRSNGAVVFASETCALDLIEATYEREVYPGEVLVVDKDGVKCQCLMPHPEPKQCIFEHIYFSLPNSIVFGRSVYESRHVFGEILATESPVDCDVVIAVPDSGVVAALGYAAKAGVAFQQGLIRSHYVGRTFIEPSQKIRDFGVKLKLSPVRGVLEGKRVVVVDDSIVRGTTSSKIVRLLREAGAKEVHMRIASPPIIASCYYGVDTPSSNELISNRMSVDEIRDYIGCDSLAFLSFETLKKHLGEDSRSFCYACFTGDYPVKPTEDKVKRGGDFIDDGLVGGIHNIEGGWVR
notes: AtGPRAT2 (At4g34740), Arabidopsis thaliana, residues 75-561, without the predicted chloroplast transit peptide; Each protomer carries a 4Fe-4S cofactor; also called GPRATase
As for B1, the Michaelis constant (Km) in “purified protein” was 350 µM. The “stoichiometry N” value in series [5] was 4.
